Test results: ChEMBL document CHEMBL2429817, “Trisubstituted imidazoles as positive modulators of metabotropic glutamate receptor subtype 5” (ACS Med Chem Lett, 2013)

Target: Metabotropic glutamate receptor 5 (Homo sapiens, UniProt P41594)
Assay: Positive modulation of human recombinant mGluR5 expressed in HEK293A cells by calcium based FLIPR assay
Assay type: functional, cell-based, HEK293-A

Sequence of Metabotropic glutamate receptor 5 (P41594 whole entry): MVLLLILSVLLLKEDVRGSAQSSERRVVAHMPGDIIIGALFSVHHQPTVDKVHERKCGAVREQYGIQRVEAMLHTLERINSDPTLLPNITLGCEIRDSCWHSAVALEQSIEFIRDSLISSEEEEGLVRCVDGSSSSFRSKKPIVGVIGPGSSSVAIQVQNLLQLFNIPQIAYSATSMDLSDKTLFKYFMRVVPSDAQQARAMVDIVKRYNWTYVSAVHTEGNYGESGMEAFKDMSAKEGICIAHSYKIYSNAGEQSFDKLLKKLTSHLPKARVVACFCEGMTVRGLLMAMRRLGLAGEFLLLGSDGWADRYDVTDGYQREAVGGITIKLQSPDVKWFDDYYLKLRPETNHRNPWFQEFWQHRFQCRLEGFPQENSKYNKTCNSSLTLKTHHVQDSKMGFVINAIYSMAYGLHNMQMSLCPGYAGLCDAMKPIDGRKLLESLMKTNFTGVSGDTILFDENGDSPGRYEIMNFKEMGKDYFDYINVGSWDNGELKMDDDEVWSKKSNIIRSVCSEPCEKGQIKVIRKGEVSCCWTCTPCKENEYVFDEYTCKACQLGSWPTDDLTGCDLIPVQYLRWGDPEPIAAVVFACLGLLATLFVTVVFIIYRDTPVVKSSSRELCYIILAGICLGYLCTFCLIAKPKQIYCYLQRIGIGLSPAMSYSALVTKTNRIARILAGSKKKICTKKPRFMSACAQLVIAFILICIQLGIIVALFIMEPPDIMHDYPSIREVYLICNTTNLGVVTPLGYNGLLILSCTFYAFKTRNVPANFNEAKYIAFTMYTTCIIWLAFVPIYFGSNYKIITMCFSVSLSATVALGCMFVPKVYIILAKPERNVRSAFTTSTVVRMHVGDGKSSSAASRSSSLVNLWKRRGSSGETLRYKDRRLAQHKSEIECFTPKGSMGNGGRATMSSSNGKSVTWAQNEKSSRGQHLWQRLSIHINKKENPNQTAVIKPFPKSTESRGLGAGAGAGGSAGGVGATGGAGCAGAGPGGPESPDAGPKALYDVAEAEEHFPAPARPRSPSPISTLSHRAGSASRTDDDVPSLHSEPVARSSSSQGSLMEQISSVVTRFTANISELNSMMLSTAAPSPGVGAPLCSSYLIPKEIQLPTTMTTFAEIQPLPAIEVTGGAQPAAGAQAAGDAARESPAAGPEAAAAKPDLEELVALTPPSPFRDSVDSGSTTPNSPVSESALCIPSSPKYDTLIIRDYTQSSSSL

EC50 [nM] | Structure (SMILES)
53 | Cc1cc(-c2cn(CC(=O)N3CCN(c4ccccn4)CC3)c(-c3ccc(F)cc3)n2)ccc1F
90 | CC1=NC2CCN(C(=O)Cn3cc(-c4ccc(F)c(C)c4)nc3-c3ccccc3)CC2O1 (centres undefined)
858 | Cc1cc(-c2cn(CC(=O)N3CCN(c4cccnn4)CC3)c(-c3ccccc3)n2)ccc1F
40 | CC1=NC2CCN(C(=O)Cn3cc(-c4ccc(F)c(C)c4)nc3-c3ccc(F)cc3)CC2O1 (centres undefined)
